Laboratory results from patent US4442106A, “Quinoline derivatives, pharmaceutical compositions containing such compounds, and methods of treating cardiovascular conditions with them” (ACF Chemiefarma N.V., priority 1980, dated 1984).
Read-outs that look alike come from different tables or passages of the source.

Experiments:
[1] = system: spontaneously hypertensive rats; assay: Effectiveness in spontaneously hypertensive rats: systolic blood pressure by tail cuff method; type: in vivo; details: Rattus norvegicus, read-out: Change of systolic blood-pressures
Method: Experiment 1-Effectiveness of the compounds of Examples in spontaneously hypertensive rats
Systolic blood pressures were recorded by a modification of the tail cuff method described by I.M. Claxton et al., Eur. J.Pharmacology 37, 179 (1976). An oscilloscope or W+W BP recorder, model 8002, was used to display pulses.
Prior to all measurements rats were placed in a heated environment (33.5±0.5° C.) before transfer to a restraining cage. Each determination of blood pressure was the mean of at least 6 readings.
Spontaneously hypertensive rats (aged 12-18 weeks) with systolic blood pressures >170 mm Hg were considered hypertensive.
In the following table the results with certain compounds of the invention, which have been carried out with the above-described method, are mentioned. The numbers of the compounds correspond with those of the Examples.

[2] = system: right ventricle of the heart; assay: Guinea Pigs Electrostimulation Test (arrhythmias by electrostimulation of the right ventricle of the heart); type: in vivo; details: Cavia porcellus, 0.5 h, 30 minutes before stimulation, read-out: Percent increase in voltage required for arrhythmia; for change in vivo at 32 mg/kg: standard dose 32 mg/kg intraduodenal
Method: Experiment 2-Effectiveness of the compounds of Examples in the Guinea Pigs Electrostimulation Test
Arrhythmias are induced in guinea pigs by electrostimulation of the right ventricle of the heart. The animals are anaesthesized with urethane (1.2 g/kg i.p.) and artificially respirated before a needle electrode is inserted in the right ventricle of the heart. Substances are given intraduodinally 30 minutes before the stimulation at a standard dose of 32 mg/kg. In some cases a different dose was used as indicated.
The voltage needed for induction of extra systoles in control animals (n=6) is compared with that required for induction of arrhythmias in treated animals (n=6).
This method is based on the work of L. Szekeres and G. J. Papp, Naunyn-Schmiedebergs Arch. Exp. Path. Pharmak., 245, 70 (1963).
In the table the results of certain compounds of the invention are mentioned, which have been carried out according to the method described above.
The numbers of the compounds correspond with those of the Examples.

CC[C@H]1CN(CCCC(=O)c2ccccc2)CC[C@H]1CCC(=O)c1cc(C)nc2ccccc12 [Compound 25, N-(3-benzoylpropyl)-2'-methyl-hydrocinchonicine.bifumarate]
change in vivo at 100 mg/kg ([1]; 1 h): -16% | change in vivo at 100 mg/kg ([1]; 2 h): -25% | change in vivo at 100 mg/kg ([1]; 4 h): -9% | change in vivo at 100 mg/kg ([1]; 6 h): -5% | change in vivo at 100 mg/kg ([1]; 24 h): 2% | change in vivo at 32 mg/kg [2]: 5%

CCCCCN1CC[C@@H](CCC(=O)c2cc(C)nc3ccccc23)[C@@H](CC)C1 [Compound 27]
change in vivo at 100 mg/kg ([1]; 1 h): -1% | change in vivo at 100 mg/kg ([1]; 2 h): -13% | change in vivo at 100 mg/kg ([1]; 4 h): -28% | change in vivo at 100 mg/kg ([1]; 6 h): -16% | change in vivo at 100 mg/kg ([1]; 24 h): -3% | change in vivo at 32 mg/kg [2]: -2%

C=C[C@H]1CN(CCCC(=O)c2ccc(F)cc2)CC[C@H]1CCC(=O)c1cc(C)nc2ccccc12 [Compound 28]
change in vivo at 10 mg/kg ([1]; 1 h): -5% | change in vivo at 10 mg/kg ([1]; 2 h): -2% | change in vivo at 10 mg/kg ([1]; 4 h): -10% | change in vivo at 10 mg/kg ([1]; 6 h): -11% | change in vivo at 10 mg/kg ([1]; 24 h): 5%

CCCN1CC[C@@H](CCC(=O)c2cc(C)nc3ccc(OC)cc23)[C@@H](CC)C1 [Compound 29]
change in vivo at 100 mg/kg ([1]; 1 h): -10% | change in vivo at 100 mg/kg ([1]; 2 h): -27% | change in vivo at 100 mg/kg ([1]; 4 h): -18% | change in vivo at 100 mg/kg ([1]; 6 h): -22% | change in vivo at 100 mg/kg ([1]; 24 h): 0% | change in vivo at 16 mg/kg ([2]; intraduodenal): 9%

CCCc1cc(C(=O)CC[C@@H]2CCN(CCC)C[C@@H]2CC)c2ccccc2n1 [Compound 30, N-propyl-2'-propyl-hydrocinchonicine]
change in vivo at 8 mg/kg ([2]; intraduodenal): 60%

CCCCCN1CC[C@@H](CCC(=O)c2cc(CCC)nc3ccccc23)[C@@H](CC)C1 [Compound 31, N-pentyl-2'-propyl-hydrocinchonicine]
change in vivo at 32 mg/kg [2]: 31%

CCCc1cc(C(=O)CC[C@@H]2CCN(CCCC(=O)c3ccccc3)C[C@@H]2CC)c2ccccc2n1 [Compound 32, N-(3-benzoylpropyl)-2'-propyl-hydrocinchonicine]
change in vivo at 10 mg/kg ([1]; 1 h): -4% | change in vivo at 10 mg/kg ([1]; 2 h): -11% | change in vivo at 10 mg/kg ([1]; 4 h): -8% | change in vivo at 10 mg/kg ([1]; 6 h): -22% | change in vivo at 10 mg/kg ([1]; 24 h): -3% | change in vivo at 32 mg/kg [2]: 52%

CC[C@H]1CN(CC(C)(C)O)CC[C@H]1CCC(=O)c1cc(C(C)C)nc2ccccc12 [Compound 36, N-(2-hydroxy-2-methylpropyl)-2'-isopropylhydrocinchonicine.bioxalate]
change in vivo at 32 mg/kg [2]: 91%

CCCN1CC[C@@H](CCC(O)c2cc(C)nc3ccccc23)[C@@H](CC)C1 (stereo partly shown) [Compound 38, N-propyl-2'-methyl-hydrocinchonicinol-1]
change in vivo at 10 mg/kg ([1]; 1 h): 1% | change in vivo at 10 mg/kg ([1]; 2 h): 0% | change in vivo at 10 mg/kg ([1]; 4 h): -3% | change in vivo at 10 mg/kg ([1]; 6 h): -4% | change in vivo at 10 mg/kg ([1]; 24 h): 0% | change in vivo at 16 mg/kg ([2]; intraduodenal): 31%

CC[C@H]1CN(CCCC(=O)c2ccc(F)cc2)CC[C@H]1CCC(O)c1cc(C)nc2ccccc12 (stereo partly shown) [Compound 39, N-[3-(4-fluorobenzoyl)propyl]-2'-methyl-hydrocinchonicinol-1]
change in vivo at 1 mg/kg ([1]; 1 h): -16% | change in vivo at 1 mg/kg ([1]; 2 h): -24% | change in vivo at 1 mg/kg ([1]; 4 h): -26% | change in vivo at 1 mg/kg ([1]; 6 h): -23% | change in vivo at 1 mg/kg ([1]; 24 h): -1% | change in vivo at 32 mg/kg [2]: 5%

CCCN1CC[C@@H](CCC(O)c2cc(C)nc3ccc(OC)cc23)[C@@H](CC)C1 (stereo partly shown) [Compound 40, N-propyl-2'-methyl-hydroquinicinol-1]
change in vivo at 16 mg/kg ([2]; intraduodenal): 44%

CCCc1cc(C(O)CC[C@@H]2CCN(CCC)C[C@@H]2CC)c2cc(OC)ccc2n1 (stereo partly shown) [Compound 42, N-propyl-2'-propyl-hydroquinicinol-1]
change in vivo at 16 mg/kg ([2]; intraduodenal): 74%

CCCCCN1CC[C@@H](CCCc2cc(C)nc3ccccc23)[C@@H](CC)C1 [Compound 44, N-pentyl-2'-methyl-desoxo-hydrocinchonicine]
change in vivo at 100 mg/kg ([1]; 1 h): 2% | change in vivo at 100 mg/kg ([1]; 2 h): -15% | change in vivo at 100 mg/kg ([1]; 4 h): -30% | change in vivo at 100 mg/kg ([1]; 6 h): -43% | change in vivo at 100 mg/kg ([1]; 24 h): -6%

CC[C@H]1CN(CCCC(=O)c2ccccc2)CC[C@H]1CCCc1cc(C)nc2ccccc12 [Compound 45, N-(3-benzoylpropyl)-2'-methyl-desoxo-hydrocinchonicine]
change in vivo at 10 mg/kg ([1]; 1 h): -14% | change in vivo at 10 mg/kg ([1]; 2 h): -6% | change in vivo at 10 mg/kg ([1]; 4 h): -14% | change in vivo at 10 mg/kg ([1]; 6 h): -21% | change in vivo at 10 mg/kg ([1]; 24 h): -2%

CC[C@H]1CN(CCCC(=O)c2ccc(F)cc2)CC[C@H]1CCCc1cc(C)nc2ccccc12 [Compound 46, N-[3-(4-fluorobenzoyl)propyl]-2'-methyl-desoxo-hydrocinchonicine]
change in vivo at 10 mg/kg ([1]; 1 h): -22% | change in vivo at 10 mg/kg ([1]; 2 h): -24% | change in vivo at 10 mg/kg ([1]; 4 h): -20% | change in vivo at 10 mg/kg ([1]; 6 h): -20% | change in vivo at 10 mg/kg ([1]; 24 h): -1%

CC[C@H]1CN(CCCC(=O)c2ccc(F)cc2)CC[C@H]1CCCc1cc(C)nc2ccc(OCCC(C)C)cc12 [Compound 47, N-[3-(4-fluorobenzoyl)propyl]-2'methyl-6'-isopentoxy-oxy-desoxo-hydrocinchonicine]
change in vivo at 10 mg/kg ([1]; 1 h): -26% | change in vivo at 10 mg/kg ([1]; 2 h): -21% | change in vivo at 10 mg/kg ([1]; 4 h): -30% | change in vivo at 10 mg/kg ([1]; 6 h): -22% | change in vivo at 10 mg/kg ([1]; 24 h): 0%

CCCN1CC[C@@H](CCCc2cc(O)nc3ccccc23)[C@@H](CC)C1 [Compound 48]
change in vivo at 16 mg/kg ([2]; intraduodenal): 19%

CCCN1CC[C@@H](CCCc2cc(O)nc3ccc(OC)cc23)[C@@H](CC)C1 [Compound 49]
change in vivo at 16 mg/kg ([2]; intraduodenal): 21%

CC[C@H]1CN(CCCC(=O)c2ccc(F)cc2)CC[C@H]1CCCc1cc(C(F)(F)F)nc2ccccc12 [Compound 50]
change in vivo at 10 mg/kg ([1]; 1 h): -4% | change in vivo at 10 mg/kg ([1]; 2 h): -16% | change in vivo at 10 mg/kg ([1]; 4 h): -16% | change in vivo at 10 mg/kg ([1]; 6 h): -13%

CC[C@H]1CN(C)CC[C@H]1CCC(=O)c1cc(OC)nc2ccccc12 [Compound 52, 2'-Methoxy-N-methyl-hydrocinchonicine.bioxalate]
change in vivo at 8 mg/kg ([2]; intraduodenal): 25%

CC[C@H]1CN(CCCC(c2ccc(F)cc2)c2ccc(F)cc2)CC[C@H]1CC(O)Cc1cc(OC)nc2ccccc12 (stereo partly shown) [Compound 55]
change in vivo at 10 mg/kg ([1]; 1 h): -11% | change in vivo at 10 mg/kg ([1]; 2 h): -5% | change in vivo at 10 mg/kg ([1]; 4 h): -7% | change in vivo at 10 mg/kg ([1]; 6 h): -10% | change in vivo at 10 mg/kg ([1]; 24 h): -2%

CCCN1CC[C@@H](CC(O)Cc2cc(OC)nc3ccc(OC)cc23)[C@@H](CC)C1 (stereo partly shown) [Compound 56]
change in vivo at 20 mg/kg ([2]; at 20 mg/kg, intraduodenal): 112%

CCCN1CC[C@@H](CC(O)Cc2cc(C(F)(F)F)nc3ccccc23)[C@@H](CC)C1 (stereo partly shown) [Compound 58, N-propyl-2'-trifluoromethyl-hydrocinchonicinol-2]
change in vivo at 10 mg/kg ([2]; at 10 mg/kg, intraduodenal): 133%

CCCN1CC[C@@H](CC(O)Cc2cc(C(F)(F)F)nc3ccccc23)[C@@H](CC)C1 (stereo partly drawn) [Compound 59, 1-(2-trifluoromethyl-4-quinolyl)-3-[3(R)-ethyl-N-propyl-4(S)-piperidyl]-propanol-2]
change in vivo at 4 mg/kg ([2]; at 4 mg/kg, intraduodenal): 55%

CCCN1CC[C@@H](CC(O)Cc2cc(C(F)(F)F)nc3ccccc23)[C@@H](CC)C1 (stereo partly shown) [Compound 60, N-propyl-2'-trifluoromethyl-hydrocinchonicinol-2]
change in vivo at 8 mg/kg ([2]; intraduodenal): 137%

CCCCCN1CC[C@@H](CC(=O)Cc2cc(C(F)(F)F)nc3ccccc23)[C@@H](CC)C1 [Compound 64, 1-(2-Trifluoromethyl-4-quinolyl)-3-[3(R)-ethyl-N-pentyl-4(S)-piperidyl]-propanone-2.bifumarate]
change in vivo at 100 mg/kg ([1]; 1 h): -5% | change in vivo at 100 mg/kg ([1]; 2 h): -23% | change in vivo at 100 mg/kg ([1]; 4 h): -17% | change in vivo at 100 mg/kg ([1]; 6 h): -13% | change in vivo at 100 mg/kg ([1]; 24 h): -8%

CC[C@H]1CN(CC(C)(C)O)CC[C@H]1CCC(=NOC)c1cc(C)nc2ccccc12 [Compound 66, N-(2-Hydroxy-2-methylpropyl)-2'-methyl-hydrocinchonicine-O-methyl oxime ether.bioxalate]
change in vivo at 16 mg/kg ([2]; intraduodenal): 43%
